This assay addresses T1, Chk1 (Homo sapiens, UniProt O14757).
T1 construct: purchased Upstate Biotechnology
T1 sequence (O14757 1-476): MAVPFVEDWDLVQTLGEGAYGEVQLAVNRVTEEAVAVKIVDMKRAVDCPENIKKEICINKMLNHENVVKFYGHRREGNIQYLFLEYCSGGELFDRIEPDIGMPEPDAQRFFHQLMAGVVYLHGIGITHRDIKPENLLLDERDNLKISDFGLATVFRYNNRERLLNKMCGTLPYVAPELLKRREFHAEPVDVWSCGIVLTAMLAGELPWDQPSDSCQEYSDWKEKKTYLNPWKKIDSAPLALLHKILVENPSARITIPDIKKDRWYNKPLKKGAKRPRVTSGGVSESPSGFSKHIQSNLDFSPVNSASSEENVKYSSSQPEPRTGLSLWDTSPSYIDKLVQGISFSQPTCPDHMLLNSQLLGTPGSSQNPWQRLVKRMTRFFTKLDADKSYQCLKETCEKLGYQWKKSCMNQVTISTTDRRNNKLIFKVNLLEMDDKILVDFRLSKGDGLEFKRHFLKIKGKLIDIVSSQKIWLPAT
Nature of the assay: Chk1 kinase assay: incorporation of γ-33P ATP into immobilized myelin basic protein. Conditions: Table 11; Chk1 only; read-out: Chk1 IC50. The format is biochemical. In short, it runs like this: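 Chk1 (10 nM) or Chk2 (20 nM) phosphorylated plate-immobilized myelin basic protein for 1 h at room temperature in Hepes pH 7.6 buffer with MgCl2, DTT, 1% DMSO, γ-33P ATP plus 10 μM (Chk1) or 30 μM (Chk2) unlabeled ATP. Bound radioactivity counted by scintillation; IC50 determined, Ki derivable from IC50.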

Molecules are shown by their SMILES. Where only a bound is given, the exact number is not on record here.

Usually IC50 stands for the concentration at which inhibition is half-maximal.

Turning to `CC(C)(C)OC(=O)N1CC[C@H](NC(=O)c2nc(-c3cccc(C(=O)NCc4cccnc4)c3)cnc2N)C1` [Example 758, 1,1-dimethylethyl (3S)-3-({[3-amino-6-(3-{[(pyridin-3-ylmethyl)amino]carbonyl}phenyl)pyrazin-2-yl]carbonyl}amino)pyrrolidine-1-carboxylate], the IC50 lay in the range of 1 to 10 µM. To `CC(C)(C)OC(=O)N1CC[C@H](NC(=O)c2nc(-c3cccc(C(=O)NC4CCOc5ccccc54)c3)cnc2N)C1` (stereo partly drawn) [Example 759, 1,1-dimethylethyl (3S)-3-{[(3-amino-6-{3-[(3,4-dihydro-2H-chromen-4-ylamino)carbonyl]phenyl}pyrazin-2-yl)carbonyl]amino}pyrrolidine-1-carboxylate] belongs 1 to 10 µM; to `Nc1ncc(-c2cccc(C(=O)NCc3ccc(Cl)cc3)c2)nc1C(=O)N[C@H]1CCNC1` [Example 760, 3-amino-6-[3-({[(4-chlorophenyl)methyl]amino}carbonyl)phenyl]-N-[(3S)-pyrrolidin-3-yl]pyrazine-2-carboxamide], < 0.05 µM. Regarding `Nc1ncc(-c2cccc(C(=O)NCc3ccccn3)c2)nc1C(=O)N[C@H]1CCNC1` [Example 761, 3-amino-6-(3-{[(pyridin-2-ylmethyl)amino]carbonyl}phenyl)-N-[(3S)-pyrrolidin-3-yl]pyrazine-2-carboxamide], the IC50 lay within 0.05 to 1 µM. Turning to `CNC(=O)c1nc(-c2cc(C(=O)OC)cc(C(=O)OC)c2)cnc1N` [Example 763, dimethyl 5-{5-amino-6-[(methylamino)carbonyl]pyrazin-2-yl}benzene-1,3-dicarboxylate], the IC50 was 1 to 10 µM. For the compound `Nc1ncc(-c2cccc(C(=O)N[C@H]3CCc4ccccc43)c2)nc1C(=O)N[C@@H]1CCCNC1` [Example 765, 3-amino-6-(3-{[(1S)-2,3-dihydro-1H-inden-1-ylamino]carbonyl}phenyl)-N-[(3R)-piperidin-3-yl]pyrazine-2-carboxamide], the IC50 was < 0.05 µM.

Take `Nc1ncc(-c2cccc(C(=O)N[C@@H]3c4ccccc4C[C@@H]3O)c2)nc1C(=O)NC1CCCNC1` (stereo partly drawn) [Example 766, 3-amino-6-[3-({[(1R,2S)-2-hydroxy-2,3-dihydro-1H-inden-1-yl]amino}carbonyl)phenyl]-N-piperidin-3-ylpyrazine-2-carboxamide]: the IC50 was < 0.05 µM. Regarding `Nc1ncc(-c2cccc(C(=O)N[C@H]3CCc4ccccc43)c2)nc1C(=O)NCCc1c[nH]cn1` [Example 767, 3-amino-6-(3-{[(1S)-2,3-dihydro-1H-inden-1-ylamino]carbonyl}phenyl)-N-[2-(1H-imidazol-4-yl)ethyl]pyrazine-2-carboxamide], the IC50 fell in the range of 0.05 to 1 µM. To `Nc1ncc(-c2cccc(C(=O)N[C@H]3CCc4ccccc43)c2)nc1C(=O)NC1CCCNCC1` (stereo partly drawn) [Example 768, 3-amino-N-azepan-4-yl-6-(3-{[(1S)-2,3-dihydro-1H-inden-1-ylamino]carbonyl}phenyl)pyrazine-2-carboxamide] belongs 0.05 to 1 µM; to `CC(C)(C)OC(=O)N1CC[C@@H](CNC(=O)c2nc(-c3cccc(C(=O)N[C@@H]4c5ccccc5C[C@@H]4O)c3)cnc2N)C1` [Example 769, 1,1-dimethylethyl (3S)-3-{[({3-amino-6-[3-({[(1R,2S)-2-hydroxy-2,3-dihydro-1H-inden-1-yl]amino}carbonyl)phenyl]pyrazin-2-yl}carbonyl)amino]methyl}pyrrolidine-1-carboxylate], ≥ 10 µM; to `CC(C)(C)OC(=O)N1CCCC(NC(=O)c2nc(-c3cccc(C(=O)N[C@H]4CCc5ccccc54)c3)cnc2N)CC1` (stereo partly drawn) [Example 770, 1,1-dimethylethyl 4-({[3-amino-6-(3-{[(1S)-2,3-dihydro-1H-inden-1-ylamino]carbonyl}phenyl)pyrazin-2-yl]carbonyl}amino)azepane-1-carboxylate], ≥ 10 µM. To `Nc1ncc(-c2cccc(C(=O)N[C@H]3CCc4ccccc43)c2)nc1-c1n[nH]c(CCOCc2ccccc2)n1` [Example 771, 3-[5-amino-6-(5-{2-[(phenylmethyl)oxy]ethyl}-1H-1,2,4-triazol-3-yl)pyrazin-2-yl]-N-[(1S)-2,3-dihydro-1H-inden-1-yl]benzamide] belongs 1 to 10 µM; to `CNC(=O)c1nc(-c2ccc(F)c(C(=O)N[C@H]3CCc4ccccc43)c2)cnc1N` [Example 772, 3-amino-6-(3-{[(1S)-2,3-dihydro-1H-inden-1-ylamino]carbonyl}-4-fluorophenyl)-N-methylpyrazine-2-carboxamide], 0.05 to 1 µM; to `Nc1ncc(-c2cccc(C(=O)N[C@H]3CCc4ccccc43)c2)nc1-c1nc(C2CCCNC2)n(-c2ccccc2)n1` (stereo partly drawn) [Example 773, 3-[5-amino-6-(1-phenyl-5-piperidin-3-yl-1H-1,2,4-triazol-3-yl)pyrazin-2-yl]-N-[(1S)-2,3-dihydro-1H-inden-1-yl]benzamide], 0.05 to 1 µM. In the case of `N=C(N)c1nc(-c2cccc(C(=O)N[C@H]3CCc4ccccc43)c2)cnc1N` [Example 774, 3-{5-amino-6-[amino(imino)methyl]pyrazin-2-yl}-N-[(1S)-2,3-dihydro-1H-inden-1-yl]benzamide], the IC50 lay in the range of 1 to 10 µM. In the case of `Nc1ncc(-c2cccc(C(=O)N[C@@H]3c4ccccc4C[C@@H]3O)c2)nc1-c1nnc([C@H]2CCCNC2)[nH]1` [Example 775, 3-(5-amino-6-{5-[(3S)-piperidin-3-yl]-4H-1,2,4-triazol-3-yl}pyrazin-2-yl)-N-[(1R,2S)-2-hydroxy-2,3-dihydro-1H-inden-1-yl]benzamide] it was < 0.05 µM; in that of `CC(C)(C)OC(=O)N1CCC[C@H](NC(=O)c2nc(-c3cccc(C(=O)N[C@H]4CCc5ccccc54)c3)cnc2N)C1` [Example 776, 1,1-dimethylethyl (3S)-3-({[3-amino-6-(3-{[(1S)-2,3-dihydro-1H-inden-1-ylamino]carbonyl}phenyl)pyrazin-2-yl]carbonyl}amino)piperidine-1-carboxylate], 0.05 to 1 µM; in that of `CC(C)(C)OC(=O)N1CCC[C@H](NC(=O)c2nc(-c3cccc(C(=O)N[C@@H]4c5ccccc5C[C@@H]4O)c3)cnc2N)C1` [Example 777, 1,1-dimethylethyl (3S)-3-[({3-amino-6-[3-({[(1R,2S)-2-hydroxy-2,3-dihydro-1H-inden-1-yl]amino}carbonyl)phenyl]pyrazin-2-yl}carbonyl)amino]piperidine-1-carboxylate], < 0.05 µM. To `Nc1ncc(-c2cccc(C(=O)NC3CCOc4ccccc43)c2)nc1C(=O)N[C@H]1CCNC1` (stereo partly drawn) [Example 778, 3-amino-6-{3-[(3,4-dihydro-2H-chromen-4-ylamino)carbonyl]phenyl}-N-[(3S)-pyrrolidin-3-yl]pyrazine-2-carboxamide] belongs 0.05 to 1 µM. In the case of `Nc1ncc(-c2cccc(C(=O)NC3COc4ccccc43)c2)nc1C(=O)N[C@H]1CCNC1` (stereo partly drawn) [Example 779, 3-amino-6-{3-[(2,3-dihydro-1-benzofuran-3-ylamino)carbonyl]phenyl}-N-[(3S)-pyrrolidin-3-yl]pyrazine-2-carboxamide] it was 0.05 to 1 µM; in that of `Nc1ncc(-c2cccc(C(=O)N[C@@H]3c4ccccc4C[C@@H]3O)c2)nc1C(=O)NC[C@@H]1CCNC1` [Example 780, 3-amino-6-[3-({[(1R,2S)-2-hydroxy-2,3-dihydro-1H-inden-1-yl]amino}carbonyl)phenyl]-N-[(3R)-pyrrolidin-3-ylmethyl]pyrazine-2-carboxamide], < 0.05 µM.

The values are drawn from patent US7704995B2 (Exelixis, Inc., priority 2003, dated 2010).
